6 compounds from ChEMBL document CHEMBL1201862, “PubChem BioAssay data set” (2004) can be followed below.

Calls of active or inactive are those of the source.

The target of test [1] is Genome polyprotein (dengue virus type 2, UniProt P29990). Description: Dengue-2 NS5 methyltransferase inhibitors, primary screen, biochemical, confirmation dose response (AID 588689). The format is functional.
For test [2], the target named is T1, Caspase-3 (Homo sapiens, UniProt P42574).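 Also: Dose-response selectivity test against caspase-3 for candidate inhibitors of sentrin-specific proteases (SENPs).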
T1 sequence (P42574 whole entry): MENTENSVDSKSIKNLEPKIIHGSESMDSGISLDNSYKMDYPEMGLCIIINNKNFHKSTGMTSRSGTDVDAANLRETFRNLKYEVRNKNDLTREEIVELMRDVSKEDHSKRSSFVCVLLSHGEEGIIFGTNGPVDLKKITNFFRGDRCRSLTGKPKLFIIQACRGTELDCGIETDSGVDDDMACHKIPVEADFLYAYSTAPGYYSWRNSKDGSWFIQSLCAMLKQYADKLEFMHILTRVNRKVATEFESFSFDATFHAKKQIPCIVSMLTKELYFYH
Type of test: functional.

The target in test [3] is T2, Sentrin-specific protease 7 (Homo sapiens, UniProt Q9BQF6).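 Also: Luminescence-based dose-response confirmation of ultra-high-throughput screening hits, measuring inhibition of SENP7.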
T2 sequence (Q9BQF6 whole entry): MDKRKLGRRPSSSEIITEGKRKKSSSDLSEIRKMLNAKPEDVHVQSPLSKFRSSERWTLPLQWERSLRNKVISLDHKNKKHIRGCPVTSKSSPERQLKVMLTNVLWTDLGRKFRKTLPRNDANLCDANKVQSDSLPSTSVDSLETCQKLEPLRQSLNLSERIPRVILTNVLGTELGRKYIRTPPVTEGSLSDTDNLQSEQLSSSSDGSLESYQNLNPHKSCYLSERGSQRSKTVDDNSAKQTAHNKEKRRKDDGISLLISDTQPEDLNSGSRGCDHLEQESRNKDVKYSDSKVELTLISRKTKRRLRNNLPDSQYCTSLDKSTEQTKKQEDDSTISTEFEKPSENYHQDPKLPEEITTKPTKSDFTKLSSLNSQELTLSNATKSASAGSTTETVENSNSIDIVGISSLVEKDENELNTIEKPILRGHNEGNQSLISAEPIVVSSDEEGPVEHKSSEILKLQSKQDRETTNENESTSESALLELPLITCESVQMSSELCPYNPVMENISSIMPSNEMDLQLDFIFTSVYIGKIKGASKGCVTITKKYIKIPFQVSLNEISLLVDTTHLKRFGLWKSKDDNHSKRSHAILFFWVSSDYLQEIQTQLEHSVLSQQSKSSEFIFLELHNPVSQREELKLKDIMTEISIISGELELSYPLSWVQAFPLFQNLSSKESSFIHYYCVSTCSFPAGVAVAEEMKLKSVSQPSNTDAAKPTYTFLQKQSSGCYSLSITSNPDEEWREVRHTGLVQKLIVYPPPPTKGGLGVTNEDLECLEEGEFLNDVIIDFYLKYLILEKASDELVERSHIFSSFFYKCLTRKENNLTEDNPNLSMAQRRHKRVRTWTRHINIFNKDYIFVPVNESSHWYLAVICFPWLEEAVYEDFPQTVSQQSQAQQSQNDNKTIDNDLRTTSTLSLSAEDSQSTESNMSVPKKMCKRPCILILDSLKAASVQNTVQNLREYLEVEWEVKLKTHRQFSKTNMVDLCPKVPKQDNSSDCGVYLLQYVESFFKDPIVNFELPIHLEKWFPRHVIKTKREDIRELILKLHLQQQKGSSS
The format is functional.

Test [4] has as its target T3, Sentrin-specific protease 8 (Homo sapiens, UniProt Q96LD8).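 Also: luminescence read-out of SENP8 inhibition, dose-response confirmation following an ultra-high-throughput screen.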
T3 sequence (Q96LD8 whole entry): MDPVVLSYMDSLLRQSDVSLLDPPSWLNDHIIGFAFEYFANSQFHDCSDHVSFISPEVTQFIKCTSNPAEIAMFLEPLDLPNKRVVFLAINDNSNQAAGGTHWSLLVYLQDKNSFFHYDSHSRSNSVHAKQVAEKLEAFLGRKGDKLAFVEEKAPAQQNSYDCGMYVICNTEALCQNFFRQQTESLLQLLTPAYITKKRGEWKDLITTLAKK
The format is functional.

Test [5] in a line: THP-1 cell cytotoxicity, dose response, cytotoxicity control for Vif-APOBEC3G degradation inhibitor project, THP-1 cells (AID 1117359). The format is functional. The conditions noted are these: Human immunodeficiency virus 1, THP-1.
The test system of test [6] is INS1. The test is described as follows: beta cell apoptosis inhibitors, cytokine rescue, dose response, luminescence, retest (AID 449756).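 Also: cell death triggered by IL-1 beta plus TNF-alpha plus IFN-gamma mixture; protective hits raise ATP signal compared with cytokine alone wells.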 The format is functional, cell-based. The conditions noted are these: Rattus norvegicus.
The nature of test [7]: cytotoxicity toward NIH3T3 fibroblasts, dose response, counter-screen, cell-based, ATP luminescence, mouse fibroblasts (AID 2010).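 Also: cells exposed to compound for about 90 hours before reading.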 The format is functional.
For test [8], the target named is T4, Apoptotic protease-activating factor 1 (Homo sapiens, UniProt O14727).
T4 sequence (O14727 whole entry): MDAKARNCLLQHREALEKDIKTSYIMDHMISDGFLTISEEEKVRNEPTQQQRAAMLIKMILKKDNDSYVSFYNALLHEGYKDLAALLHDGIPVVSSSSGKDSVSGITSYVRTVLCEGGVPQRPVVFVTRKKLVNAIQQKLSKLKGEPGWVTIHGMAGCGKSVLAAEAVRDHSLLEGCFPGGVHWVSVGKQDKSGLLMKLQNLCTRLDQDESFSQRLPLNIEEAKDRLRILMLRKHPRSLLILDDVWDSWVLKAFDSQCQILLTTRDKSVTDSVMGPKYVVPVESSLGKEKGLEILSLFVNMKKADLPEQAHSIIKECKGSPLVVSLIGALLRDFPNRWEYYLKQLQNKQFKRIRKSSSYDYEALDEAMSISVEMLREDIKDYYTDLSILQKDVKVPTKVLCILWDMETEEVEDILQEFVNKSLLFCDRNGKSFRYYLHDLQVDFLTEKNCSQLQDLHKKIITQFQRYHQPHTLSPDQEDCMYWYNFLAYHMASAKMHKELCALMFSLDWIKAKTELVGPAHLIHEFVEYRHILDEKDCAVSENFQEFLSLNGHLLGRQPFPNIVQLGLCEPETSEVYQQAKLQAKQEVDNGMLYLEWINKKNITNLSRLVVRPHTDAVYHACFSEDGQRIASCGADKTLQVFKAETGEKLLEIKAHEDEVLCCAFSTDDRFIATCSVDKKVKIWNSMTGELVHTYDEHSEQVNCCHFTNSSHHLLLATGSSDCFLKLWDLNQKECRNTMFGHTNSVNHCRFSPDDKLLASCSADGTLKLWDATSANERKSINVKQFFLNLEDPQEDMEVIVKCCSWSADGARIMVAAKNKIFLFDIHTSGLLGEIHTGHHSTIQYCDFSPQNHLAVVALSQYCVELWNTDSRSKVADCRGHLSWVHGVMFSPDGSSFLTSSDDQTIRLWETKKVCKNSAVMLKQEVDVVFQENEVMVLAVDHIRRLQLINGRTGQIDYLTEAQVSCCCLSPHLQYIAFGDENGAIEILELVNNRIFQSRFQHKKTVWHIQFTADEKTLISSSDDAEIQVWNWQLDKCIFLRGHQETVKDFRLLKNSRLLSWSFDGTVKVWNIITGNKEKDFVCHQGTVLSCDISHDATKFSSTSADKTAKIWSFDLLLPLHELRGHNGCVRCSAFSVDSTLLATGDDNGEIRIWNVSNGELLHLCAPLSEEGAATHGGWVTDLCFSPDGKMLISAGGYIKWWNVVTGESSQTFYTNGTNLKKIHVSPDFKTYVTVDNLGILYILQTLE
The format is functional.

Genome polyprotein, sequence (P29990 2492-3391 limits assumed): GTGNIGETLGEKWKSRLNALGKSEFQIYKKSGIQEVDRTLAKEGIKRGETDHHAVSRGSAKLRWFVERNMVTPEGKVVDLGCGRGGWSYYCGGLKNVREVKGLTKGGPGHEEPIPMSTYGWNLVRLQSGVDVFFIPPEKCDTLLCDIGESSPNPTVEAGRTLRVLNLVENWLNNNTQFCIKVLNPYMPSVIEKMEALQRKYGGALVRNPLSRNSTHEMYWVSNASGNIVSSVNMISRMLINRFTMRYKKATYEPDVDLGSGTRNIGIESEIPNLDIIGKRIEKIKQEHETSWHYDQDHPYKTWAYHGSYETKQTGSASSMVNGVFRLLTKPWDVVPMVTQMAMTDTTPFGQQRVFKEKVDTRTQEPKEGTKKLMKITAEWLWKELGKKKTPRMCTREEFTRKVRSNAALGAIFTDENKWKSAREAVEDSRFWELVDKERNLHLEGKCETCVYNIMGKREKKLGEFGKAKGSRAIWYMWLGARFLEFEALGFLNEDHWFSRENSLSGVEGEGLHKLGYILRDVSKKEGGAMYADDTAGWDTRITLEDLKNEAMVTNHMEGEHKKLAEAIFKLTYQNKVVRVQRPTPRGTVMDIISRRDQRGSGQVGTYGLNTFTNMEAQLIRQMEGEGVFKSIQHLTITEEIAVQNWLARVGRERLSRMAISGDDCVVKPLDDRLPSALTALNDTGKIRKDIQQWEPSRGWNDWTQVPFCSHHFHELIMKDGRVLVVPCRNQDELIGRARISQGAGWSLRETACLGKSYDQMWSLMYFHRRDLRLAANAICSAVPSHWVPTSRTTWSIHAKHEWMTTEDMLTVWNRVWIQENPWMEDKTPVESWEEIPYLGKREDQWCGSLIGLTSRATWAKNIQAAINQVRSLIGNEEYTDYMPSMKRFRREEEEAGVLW

As for `CCc1nnc(NS(=O)(=O)c2ccc(NC(=S)NC(=O)/C=C/c3ccc(C(C)C)cc3)cc2)s1`, in test [1], the half-inhibitory concentration (IC50) – broadly, the midpoint of a concentration-inhibition curve – was 50 µM (active).

Consider `O=C(/C=C/c1ccco1)Nc1ccc(Oc2ccccc2)cc1`, for which the 50% inhibitory concentration (IC50) in test [2] was 20.5 µM (active); in test [3] it was 3.82 µM (active); in test [4], 17.4 µM (active).

With `CC1CC(=O)c2c(cc3c(-c4c(O)cc(O)c5c(O)c6c(cc45)OC(C)CC6=O)c(O)cc(O)c3c2O)O1` (stereo unspecified) [CEPHALOCHROMIN], the CC50 (in general, the concentration that lowers cell viability or growth by half) in test [5] was 3.08 µM (active). In addition, the AC50 – broadly, the midpoint of the concentration-response curve, whichever way the signal moves – in test [6] was 3.39 µM (active). Also, the EC50 (as a rule, the concentration needed to bring the measured effect to its halfway point) in test [7] was 8.42 µM (active).

With `COc1ccc(S(=O)(=O)Nc2cc(SCC(=O)O)c(O)c3ccccc23)cc1`, the 50% inhibitory concentration (IC50) in test [2] was 11.2 µM (active); in test [3], 19.9 µM (active); in test [4] it was 9.39 µM (active); in test [1], 7.22 µM (active); in test [8] it was 31.8 µM (active). In addition, the 50% cytotoxic concentration (CC50) in test [5] was 5.84 µM (active). Besides, in test [6], the half-maximal activity concentration (AC50) is 4.09 µM (active).

Consider `COC(=O)C(O)(c1c(C)[nH]n(-c2ccccc2)c1=O)C(F)(F)F` (stereo unspecified), for which, in test [8], the IC50 is 14.6 µM (active).

As to `O=C1C(Nc2ccc(O)cc2)=C/C(=N/S(=O)(=O)c2cccs2)c2ccccc21`, in test [7], the 50% effective concentration (EC50) was 0.486 µM (active).
